# Reference: patent publication US20240300943A1, “NOVEL SALTS OF HETEROCYCLIC COMPOUND AS PROTEIN KINASE INHIBITOR AND USES THEREOF” (HK INNO.N CORPORATION, priority 2021, published 2024)
# Key:
# JAK1, 3 [1] = test: Human whole blood assay, JAK1, 3; assay type: cell-based; details: cytokine-induced STAT phosphorylation
# JAK2 = JAK2 (Homo sapiens, UniProt O60674); test: In vitro cell assay, JAK2 (STAT phosphorylation ELISA); assay type: cell-based; parameters: endogenous in cells; host or cells: UT-7/EPO (inferred); details: read-out: IC50, Cell Biology JAK2
# JAK2, sequence (O60674 whole entry, species assumed): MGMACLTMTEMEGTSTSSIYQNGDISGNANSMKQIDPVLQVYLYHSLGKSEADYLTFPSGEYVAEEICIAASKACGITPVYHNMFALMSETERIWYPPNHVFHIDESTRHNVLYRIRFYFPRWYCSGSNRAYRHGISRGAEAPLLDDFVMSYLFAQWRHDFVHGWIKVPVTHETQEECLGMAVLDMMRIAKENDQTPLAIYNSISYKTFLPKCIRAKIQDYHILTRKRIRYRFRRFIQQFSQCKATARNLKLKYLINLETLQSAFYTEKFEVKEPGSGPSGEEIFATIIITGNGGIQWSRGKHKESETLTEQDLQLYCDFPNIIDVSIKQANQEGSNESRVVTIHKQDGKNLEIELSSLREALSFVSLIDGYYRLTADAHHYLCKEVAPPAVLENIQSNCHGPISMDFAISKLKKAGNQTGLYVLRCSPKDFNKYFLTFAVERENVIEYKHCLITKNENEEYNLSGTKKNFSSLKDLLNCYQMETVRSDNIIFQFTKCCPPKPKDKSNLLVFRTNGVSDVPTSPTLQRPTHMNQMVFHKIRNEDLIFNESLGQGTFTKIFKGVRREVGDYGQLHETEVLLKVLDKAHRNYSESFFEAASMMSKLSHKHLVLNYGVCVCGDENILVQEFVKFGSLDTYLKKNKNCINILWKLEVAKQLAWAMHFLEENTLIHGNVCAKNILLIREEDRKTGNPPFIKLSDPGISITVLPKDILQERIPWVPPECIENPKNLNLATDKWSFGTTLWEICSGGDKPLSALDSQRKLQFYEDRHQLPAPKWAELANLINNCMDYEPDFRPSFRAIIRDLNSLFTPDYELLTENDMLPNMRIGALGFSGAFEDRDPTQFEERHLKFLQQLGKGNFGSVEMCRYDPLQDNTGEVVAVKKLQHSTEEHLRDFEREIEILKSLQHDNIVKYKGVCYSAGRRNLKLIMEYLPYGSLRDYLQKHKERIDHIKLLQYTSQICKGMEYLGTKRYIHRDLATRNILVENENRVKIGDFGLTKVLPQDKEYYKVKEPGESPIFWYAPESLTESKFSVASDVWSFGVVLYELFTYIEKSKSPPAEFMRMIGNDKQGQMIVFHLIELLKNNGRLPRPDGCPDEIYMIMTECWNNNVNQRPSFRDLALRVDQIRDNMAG
# Protocol: (§1) UT-7/EPO cell is an erythroleukemic cell line which expresses an EPO receptor, and is frequently used in many previous studies as a model to assess EPO-induced STAT5 phosphorylation mediated by JAK1 and JAK2 activity. Accordingly, in order to evaluate the activity of JAK1 and JAK2, UT-7/EPO cells were prepared.
# (§2) The test material was dissolved in DMSO, prepared at 10 mM, divided by 20 μL each, and stored at −20° C.
# (§3) • EPO: 2000 U/0.5 mL of stock was divided by 50 μL each and stored under refrigeration. • IL-2: 200 μg/ml of stock was prepared, divided by 5 μL each, and stored, and then treated at 2 ng/ml. (IL-2 1 μg/ml=13000 U/ml) • IFN-alphaB2: […] of stock was diluted and used, and then treated to reach 30000 U/ml.
# (§4) • UT-7/EPO cell assay: MEM-alpha (Gibco, cat #12561-056) was prepared to contain 5% FBS and 1% P/S before use. • NK-92 cell assay: A preparation was made to contain HBSS, 1% FBS and 1% P/S before use. • U2OS cell assay: A preparation was made to contain HBSS, 1% FBS and 1% P/S before use.
# (§5) The cultured cells were centrifuged (1,000 rpm, 5 minutes) and washed with PBS. The size of cell lines and appropriate reaction concentration thereof were set and the cell lines were seeded in a 96-well plate at 1×10^5 to 10^6 cells/well (50 μL/well). […]
# JAK1, 3 [2] = test: In vitro cell assay, JAK1, 3 (NK-92 cells, IL-2); assay type: cell-based; details: NK92, read-out: IC50, Cell Biology JAK1, 3
# Protocol: In addition, NK-92 cell is a natural killer cell line, which grows in an IL-2-dependent way, and is derived from peripheral blood mononuclear cells, and thus is suitable for evaluating the activity of JAK1 and JAK3 by IL-2. Thus, in order to evaluate the activity of JAK1 and JAK3, NK-92 cells were prepared.
# as §2, §3, §4, §5
# JAK1, 2 = test: In vitro cell assay, JAK1, 2 (STAT phosphorylation ELISA); assay type: cell-based; details: read-out: IC50, Cell Biology JAK1, 2
# Protocol: as §1, §2, §3, §4, §5
# [3] = system: DNCB-induced animal model (NC/Nga mice); test: DNCB-induced atopic dermatitis model (topical); assay type: in vivo; details: for Reduction of scratching behavior compared to the control group (vehicle): week 4, FIG. 12
# Protocol: NC/Nga mice were anesthetized with isoflurane and the dorsal hair (from the bottom of the ear to the top of the tail) was then removed. The NC/Nga mice were left for 24 hours for recovery of fine wounds on the shaved skin.
# After healing, 200 μL of 1%1-chloro-2,4-dinitrobenzene (DNCB) in acetone/olive oil (3:1) was topically applied to the dorsal skin (primary skin application). Secondary skin application was performed after three days for sensitization.
# Seven days after the primary skin application, 150 μL of 0.4% DNCB in acetone/olive oil (3:1) was topically applied, and applied to the dorsal skin three times a week for five weeks.
# The phosphate of Compound 1 (hereinafter, referred to as a phosphate compound) obtained according to Example 3 was used as a test material, and the test material was treated before applying DNCB from two weeks after the primary skin application. The dosage of the test material was calculated based on a body weight of mice measured on the day of administration, and the test material was topically applied to atopic skin using a glass stick (a total of 56 times twice a day for 28 days, six hours at a treatment interval). 0.5% methylcellulose (0.5% MC) was administered to the control group (vehicle).
# Week 6 after the primary skin application, the test animals were autopsied. Specifically, the test animals were anesthetized using isoflurane, and as much blood as possible was drawn from the caudal vena cava with a syringe and stored in a 5 mL vacuum tube containing a blood clot activator. The blood was allowed to stand at room temperature for 15-20 minutes for coagulation and then centrifuged at 3000 rpm for 10 minutes.
# Atopic dermatitis scores were rated as none (0), mild (1), moderate (2), and severe (3) for each of the five symptoms (erythema, dryness, skin edema and hematoma, erosion, and keratinization). The total dermatitis score representing clinical severity was defined as the sum of all scores (maximum score: 15). The evaluation was conducted twice a week by the same researcher at the same time.
# To evaluate a scratching behavior at week 4, mice were placed in cages and the frequency of scratching was evaluated for 30 minutes.
# Quantitative analysis was performed using a serum IgE and histamine with ELISA kit.
# After measuring a weight of the spleen and mouse, a spleen-to-body weight ratio (relative organ weight) was calculated.
# TARC, TSLP, IL-4, IL-1B and TNF-α were quantified using skin tissue through qRT-PCR.
# On the day of autopsy, the skin in 10% neutral buffered formalin solution was analyzed by staining with H & E and toluidine blue.
SMILES,"IC50 (JAK1, 3 [1]) [nM]",IC50 (JAK2) [nM],"IC50 (JAK1, 3 [2]) [nM]","IC50 (JAK1, 2) [nM]",Reduction of scratching behavior compared to the control group (vehicle) ([3]; 3% phosphate compound),Skin severity score (clinical atopic dermatitis score) ([3]; FIG. 11),Spleen-to-body weight ratio ([3]; FIG. 15),Histological properties of atopic dermatitis (skin staining) ([3]; FIG. 16),Atopic dermatitis-related cytokines of plasma and skin ([3]; FIGS. 13 and 14),Reduction of scratching behavior compared to the control group (vehicle) ([3]; dosed groups),"Symptoms of atopic dermatitis ([3]; twice a day for 28 days, FIGS. 11 to 16)"
"C[C@@H]1CN(C(=O)CC#N)CC=C1c1cc(NC(=O)C2CC2)nc2[nH]ccc12 [Compound 1, (S)—N-(4-(1-(2-cyanoacetyl)-3-methyl-1,2,3,6-tetrahydropyridin-4-yl)-1H-pyrrolo[2,3-b]pyridin-6-yl)cyclopropanecarboxamide]",544,656,163,18,,,,,,,
"C[C@@H]1CN(C(=O)CC#N)CC=C1c1cc(NC(=O)C2CC2)nc2[nH]ccc12 [Example 3, (S)—N-(4-(1-(2-cyanoacetyl)-3-methyl-1,2,3,6-tetrahydropyridin-4-yl)-1H-pyrrolo[2,3-b]pyridin-6-yl)cyclopropanecarboxamide]",,,,,at least 50%,significantly reduced,decreased,changes the histological properties of atopic dermatitis,reduced,at least 30%,ameliorates symptoms of atopic dermatitis
